Test results published in US11639360B2, “Oxazine compound and application thereof” (DALIAN UNIVERSITY OF TECHNOLOGY, priority 2018, dated 2023).

Columns and labels:
[1] = Self-assembled nano drug-delivery system, scanning electron microscope; type: physicochemical; conditions: self-assembled in PBS or ultrapure water
Description: The compound F-1 synthesized in Embodiment 1 was used, and a proper amount of F-1-DMSO solution was added into a phosphate buffer (PBS) or ultrapure water as required. After shaking the mixture evenly, the compound F-1 could be self-assembled in the PBS or ultrapure water to form a nanoparticle system. It can be seen from FIG. 14 that the nanoparticles formed by the self-assembly of the compound F-1 in the nano-system are about 200 nanometers in size, regular in shape and uniform in size, and have excellent dispersion properties.

[2] = system: MCF-7 (human breast cancer cell); assay: In vitro cell anti-cancer test under illumination (MTT); type: cell-based; conditions: MTT cell survival rate; for killing effect on the cells under illumination: MCF-7, 30 minutes incubation, red light 660 nanometers; for killing effect on the cells without illumination: MCF-7, no illumination
Description: MCF-7 (human breast cancer cell) was planted in 96-well culture plates at a density of 5000 cells per well and cultured in a cell incubator for 24 hours (37° C., 5% CO2). The compound F-1 synthesized in Embodiment 1 was used, and F-1-DMSO solution was added into DMEM containing 10% fetal calf serum to prepare solutions with different concentrations, and the prepared solutions were added to the 96-well culture plates and placed in a cell incubator to incubate for 30 minutes, and then irradiated for a certain period by red light with a wavelength of 660 nanometers. After irradiation, 96 empty plates were placed in a cell incubator and continuously incubated for 12 hours. Then, 100 μl of culture medium containing 5 mg/ml MTT was added to each well, and incubated in a cell incubator for 4 hours. The culture solutions in the well of the plates were removed, 100 µl of DMSO was added to each well to fully dissolve MTT oxidation products, and then the absorbance of each well at 570 nanometers and 630 nanometers were measured with a microplate reader, and a cell survival rate was calculated.
MCF-7 (human breast cancer cell) was planted in 96-well culture plates at a density of 5000 cells per well and cultured in a cell incubator for 24 hours (37° C., 5% CO2). The compound F-2 synthesized in Embodiment 6 was used, and F-2-DMSO solution was added into DMEM containing 10% fetal calf serum to prepare solutions with different concentrations, and the prepared solutions were added to the 96-well culture plates and placed in the cell incubator to incubate for 30 minutes, and then irradiated for a certain period by red light with a wavelength of 660 nanometers. After irradiation, 96 empty plates were placed in a cell incubator and continuously incubated for 12 hours. Then, 100 μl of culture medium containing 5 mg/ml MTT was added to each well, and incubated in a cell incubator for 4 hours. The culture solutions in the well of the plates were removed, 100 µl of DMSO was added to each well to fully dissolve MTT oxidation products, and then the absorbance of each well at 570 nanometers and 630 nanometers were measured with a microplate reader, and a cell survival rate was calculated.
MCF-7 (human breast cancer cell) was planted in 96-well culture plates at a density of 5000 cells per well and cultured in a cell incubator for 24 hours (37° C., 5% CO2). The compound F-3 synthesized in Embodiment 11 was used, and […] was added into DMEM containing 10% fetal calf serum to prepare solutions with different concentrations, and the prepared solutions were added to the 96-well culture plates and placed in the cell incubator to incubate for 30 minutes, and then irradiated for a certain period by red light with a wavelength of 660 nanometers. After irradiation, 96 empty plates were placed in a cell incubator and continuously incubated for 12 hours. Then, 100 μl of culture medium containing 5 mg/ml MTT was added to each well, and incubated in a cell incubator for 4 hours. The culture solutions in the well of the plates were removed, 100 μl of DMSO was added to each well to fully dissolve MTT oxidation products, and then the absorbance of each well at 570 nanometers and 630 nanometers were measured with a microplate reader, and a cell survival rate was calculated.

[3] = Spectral test experiment (UV-vis spectrophotometer and fluorescence spectrometer); type: physicochemical; conditions: in dichloromethane
Description: The compound F-1 synthesized in Embodiment 1 was used, and F-1-DMSO solution was added into dichloromethane and mixed evenly. Spectral properties of the compound F-1 were tested by a UV-vis spectrophotometer and a fluorescence spectrometer. The results are shown in FIG. 2, wherein the F-1 molecules have the maximum absorption and the maximum emission at 680 nanometers and 700 nanometers in the dichloromethane respectively.
The compound F-2 synthesized in Embodiment 6 was used, and F-2-DMSO solution was added into dichloromethane and mixed evenly. Spectral properties of the […] were tested by a UV-vis spectrophotometer and a fluorescence spectrometer. The results are shown in FIG. 6, wherein the F-2 molecules have the maximum absorption and the maximum emission at 686 nanometers and 712 nanometers in the dichloromethane are respectively.
The compound F-3 synthesized in Embodiment 11 was used, and F-3-DMSO solution was added into dichloromethane and mixed evenly. Spectral properties of the […] were tested by a UV-vis spectrophotometer and a fluorescence spectrometer. The results are shown in FIG. 10, wherein the F-3 molecules have the maximum absorption and the maximum emission at 697 nanometers and 740 nanometers in the dichloromethane.

SMILES | size of nanoparticles formed by self-assembly [1] | killing effect on the cells under illumination [2] | killing effect on the cells without illumination [2] | maximum absorption [3] [nanometers] | maximum emission [3] [nanometers]
CC/N=c1/cc2sc3c4c5c(cc3nc-2c2ccccc12)CCCN5CCC4 [Compound F-1] | about 200 nanometers | obvious killing effect on the cells | very small killing effect on the cells without illumination, and has almost no toxicity | 680 | 700
CC/N=c1/cc2[se]c3c4c5c(cc3nc-2c2ccccc12)CCCN5CCC4 [Compound F-2] | – | obvious killing effect on the cells at low energy density of illumination | very small killing effect on the cells without illumination, and has almost no toxicity | 686 | 712
CC/N=c1/cc2[te]c3c4c5c(cc3nc-2c2ccccc12)CCCN5CCC4 [Compound F-3] | – | obvious killing effect on the cells at low energy density of illumination | a certain killing effect on the cells without illumination | 697 | 740
